#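 In this assay, cells in 96-well plates receive the compound at five concentrations for 48 hours. Endpoints are linearly interpolated between the surrounding concentrations. At the GI50, growth is halved. TGI: total growth inhibition.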
# Tests used:
# Experiment in all cases: inhibition of tumour cell growth, NCI panel, 48 h
# NCI-H23 lung = tested on: NCI-H23 lung
# SNB-75 CNS = tested on: SNB-75 CNS
# TK-10 renal = tested on: TK-10 renal
# SF-268 CNS = tested on: SF-268 CNS
# A498 renal = tested on: A498 renal
# UO-31 renal = tested on: UO-31 renal
# IGROV1 ovarian = tested on: IGROV1 ovarian
# CAKI-1 renal = tested on: CAKI-1 renal
# RPMI-8226 leukemia = tested on: RPMI-8226 leukemia
# MALME-3M melanoma = tested on: MALME-3M melanoma
Structure (SMILES),TGI (NCI-H23 lung) [µM],TGI (SNB-75 CNS) [µM],TGI (TK-10 renal) [µM],TGI (SF-268 CNS) [µM],TGI (A498 renal) [µM],TGI (UO-31 renal) [µM],TGI (IGROV1 ovarian) [µM],TGI (CAKI-1 renal) [µM],TGI (RPMI-8226 leukemia) [µM],TGI (MALME-3M melanoma) [µM],GI50 (NCI-H23 lung) [µM],GI50 (SNB-75 CNS) [µM],GI50 (TK-10 renal) [µM],GI50 (SF-268 CNS) [µM],GI50 (A498 renal) [µM],GI50 (MALME-3M melanoma) [µM],GI50 (IGROV1 ovarian) [µM],GI50 (CAKI-1 renal) [µM]
Cc1[nH]c2ncn(/N=C/c3ccccc3)c(=N)c2c1Cc1ccccc1,> 100,> 100,> 100,> 100,> 100,> 100,> 100,> 100,> 100,,,,,,,,,
C/C(C=O)=N\Nc1cc(C)c2ccccc2n1,25.9,30.3,29.5,43.2,28.9,28.1,32.1,30.7,39,,,,,,,,,
CC1CCCc2c(-c3ccc(Cl)cc3)nc(N)c(C#N)c21 (configuration not stated),99.4,50.6,> 100,> 100,89,61.7,66.1,> 100,37.9,> 100,,,,,,,,
CC1=NC(=Cc2ccc(Cl)cc2)C(=O)N1n1c(-c2ccccc2)nc2ccccc2c1=O,96,99.6,> 100,> 100,63.4,> 100,> 100,69.1,> 100,> 100,,,,,,,,
O=c1cc(-c2ccc(O)c(O)c2)oc2cc(OC3OC(CO)C(O)C(O)C3O)cc(O)c12 (configuration not stated),> 100,> 100,> 100,> 100,> 100,> 100,> 100,> 100,> 100,> 100,,,,,,,,
COc1ccc2oc(=N)c(C(N)=S)cc2c1,,74.8,90.2,64.3,,48.6,> 100,> 100,82.3,32.9,,,,,,,,
Nc1ncc2c(n1)-c1ccccc1OC2NC1CC1 (configuration not stated),> 100,> 100,> 100,> 100,> 100,> 100,> 100,> 100,> 100,,,,,,,,,
N#C/C(=C\c1ccc(Cl)cc1)c1nc2ccccc2c(=O)[nH]1,,61.7,> 100,> 100,,> 100,> 100,> 100,> 100,> 100,,,,,,,,
CC[C@@]1(O)C(=O)OCc2c1c(Cl)c1n(c2=O)Cc2cc3ccccc3nc2-1,6.24,12.7,> 79.5,67.7,8.45,9.22,42.9,16.4,> 100,42.1,,,,,,,,
O=C(/C=C/c1ccc(O)c(O)c1)NC(CO)C(=O)O (configuration not stated),> 100,> 100,> 100,> 100,> 100,> 100,,> 100,> 100,> 100,,,,,,,,
O=S(=O)(CC1=NC2C=CC=CC2N=C1)NCc1ccccc1 (configuration not stated),> 100,> 100,> 100,> 100,> 100,,> 100,> 100,> 100,> 100,,,,,,,,
CSC1=N/C(=C\c2cccs2)C(=O)N1CN1CCCCC1,> 100,> 100,> 100,> 100,> 100,> 100,> 100,,68.8,> 100,,,,,,,,
COC(=O)n1c(=O)nc2c3c(ncn21)Oc1c(c(-c2ccccc2)nn1-c1ccccc1)C3c1ccc(Cl)cc1 (configuration not stated),3.96,7.69,3.37,,5.02,3.28,,2.98,4.07,2.21,,,,,,,,
CCn1c(=O)c2c(=O)[nH][nH]c2c2ccccc21,> 100,> 100,> 100,,> 100,> 100,> 100,,> 100,> 100,,,,,,,,
COC(=O)c1c/c(=N\NC(=O)CC(=O)Nc2ccccc2Cl)c2ccccc2o1,> 100,> 100,> 100,> 100,,> 100,> 100,> 100,> 100,,,,,,,,,
Oc1cn(-c2ccc(Cl)cc2)nc1-c1nnc(Nc2ccccc2)o1,27.3,45.2,38.1,33.7,29.5,46.1,32.4,> 100,,50.1,,,,,,,,
COc1ccc(NC=O)c(C(O)CCNC(C)=O)c1 (configuration not stated),> 100,> 100,> 100,> 100,> 100,> 100,> 100,> 100,> 100,,,,,,,,,
Cc1ccc2sc3cc(=O)cc(C)c-3nc2c1,> 100,> 100,> 100,> 100,,> 100,> 100,93.1,,,,,,,,,,
COc1cc(C2c3cccc4cccc(c34)C3CCC(=O)N32)cc(O)c1O (configuration not stated),> 50,> 50,,,> 50,> 50,> 50,,30.9,,,,,,,,,
CSc1nc(C)cc(Nc2ccc(O)c(CN3CCCCC3)c2)n1,> 100,> 100,,> 100,53.1,> 100,> 100,> 100,71.4,> 100,,,,,,,,
CCOC(=O)CCc1c(C(=O)OCC)[nH]c(/C=C2/NC(=O)C(C)=C2CC)c1C,11.7,42.7,88.2,29.2,77.6,10.5,47.7,80.2,,33.3,,,,,,,,
O=C(O)CCC(=O)Nc1ccc2c(c1)S(=O)(=O)N(CC(=O)O)C2=O,> 100,,> 100,,> 100,> 100,> 100,> 100,> 100,> 100,,,,,,,,
CC(=O)OC1[C@H]2c3cc4c(cc3CN3CCC(C[C@@H]1OC(C)=O)C23)OCO4 (some centres not stated),> 75,> 75,> 75,> 75,,> 75,> 75,,> 75,> 75,,,,,,,,
COc1ccc(/C=C2/C(=O)N(C(=O)c3ccc(Cl)cc3)N=C2C)cc1OC,> 100,,> 100,> 100,> 100,> 100,> 100,> 100,> 100,> 100,,,,,,,,

Structure (SMILES),TGI (NCI-H23 lung) [µM],TGI (SNB-75 CNS) [µM],TGI (TK-10 renal) [µM],TGI (SF-268 CNS) [µM],TGI (A498 renal) [µM],TGI (UO-31 renal) [µM],TGI (IGROV1 ovarian) [µM],TGI (CAKI-1 renal) [µM],TGI (RPMI-8226 leukemia) [µM],TGI (MALME-3M melanoma) [µM],GI50 (NCI-H23 lung) [µM],GI50 (SNB-75 CNS) [µM],GI50 (TK-10 renal) [µM],GI50 (SF-268 CNS) [µM],GI50 (A498 renal) [µM],GI50 (MALME-3M melanoma) [µM],GI50 (IGROV1 ovarian) [µM],GI50 (CAKI-1 renal) [µM]
CN(C(=O)C1=CCCCCC1)c1ccccc1I,> 100,79.7,,95.9,> 100,> 100,> 100,> 100,> 100,,,,,,,,,
CC(SC1=CC(=O)c2c(Cl)ccc(O)c2C1=O)C(=O)O (configuration not stated),,31,35.3,44.2,> 100,,33.4,,76.4,37.7,,,,,,,,
CSc1nc(=S)[nH]c2n[nH]c(C)c12,> 100,> 100,> 100,> 100,> 100,> 100,,> 100,> 100,> 100,,,,,,,,
CC(C#N)Nc1ccc(Oc2ccc(C(C)(C)c3ccc(Oc4ccc(NC(C)C#N)cc4)cc3)cc2)cc1 (configuration not stated),> 100,> 100,> 100,> 100,> 100,> 100,> 100,> 100,,> 100,,,,,,,,
C/C(C=O)=C1\C(O)C[C@]1(C)C1CC(C)(C)CC1O (some centres not stated),> 100,,> 100,> 100,> 100,> 100,,> 100,> 100,> 100,,,,,,,,
COc1c(O)cc(/C=C/c2cc(O)cc3c2[C@@]2(C(=O)O3)c3c(O)cc(O)cc3OC2c2cccc(O)c2)cc1O (some centres not stated),> 100,,> 100,> 100,> 100,> 100,> 100,> 100,52.8,> 100,,,,,,,,
COc1ccc(CCN2CCC(C#N)(c3ccc(OC)c(OC)c3)CC2)cc1OC,> 100,> 100,> 100,> 100,,> 100,> 100,,> 100,> 100,,,,,,,,
CC1C2CC(C(C3C(=O)C4CC3C(C)(C)C4C)C2=O)C1(C)C (configuration not stated),> 100,> 100,> 100,> 100,> 100,> 100,> 100,> 100,,> 100,,,,,,,,
C1CSCC2(COC2)CS1,> 100,> 100,> 100,> 100,> 100,> 100,,,,,,,,,,,,
COc1ccc(NC(=O)C2=C(SC)C(C#N)C(=O)N=C2N)cc1 (configuration not stated),> 100,,> 100,> 100,> 100,> 100,> 100,> 100,> 100,76.8,,,,,,,,
O=C1/C(=C/c2cccc([N+](=O)[O-])c2)COc2ccccc21,18.2,> 61.5,> 95.2,> 80.3,> 84.4,67.8,> 19.9,> 100,,> 50.6,,,,,,,,
CCOC(=O)CNC(=O)C(CSC(=O)N(O)c1ccc(Br)cc1)NC(=O)CCC(N)C(=O)OCC (configuration not stated),> 50,,,> 50,> 50,> 50,> 50,> 50,> 50,> 50,,,,,,,,
COc1ccccc1NC(=O)C(C#N)=C(SC)SC,> 100,,> 100,> 100,> 100,> 100,> 100,> 100,> 100,> 100,,,,,,,,
O=C1/C(=C/c2cccc([N+](=O)[O-])c2)CCCc2ccccc21,31.4,29.9,30.8,19.3,,30,25.8,30.1,49,22.2,,,,,,,,
COc1ccc(/C=C/C(=O)NCC(NC(=O)/C=C/c2ccc(OC)c(OC)c2)C(=O)O)cc1OC (configuration not stated),> 100,> 100,> 100,> 100,> 100,> 100,,> 100,> 100,> 100,,,,,,,,
Clc1cc(Cl)cc(N2N=C(c3cccc(Nc4ccncc4)c3)CC2c2ccccc2)c1 (configuration not stated),3.91,5.38,3.98,4.63,4.42,,3.04,3.36,,3.16,1.81,1.45,2.02,1.99,1.81,1.67,1.54,1.57
CC(=NNC(=S)Nc1ccccc1C)c1cccc(C(C)=NNC(=S)Nc2ccccc2C)n1,> 100,,> 100,> 100,> 100,> 100,> 100,> 100,> 100,76.9,,,,,,,,
CN(CCO)CC(=O)CC(O)(C(F)(F)F)C(F)(F)F,60.2,51.7,> 100,,> 100,> 100,> 100,90.3,> 100,> 100,,,,,,,,
CCCCCCC(N)(CCCCCC)C(=O)Nn1c(C)ccc1C,> 100,> 100,> 100,> 100,> 100,> 100,> 100,,> 100,> 100,,,,,,,,
Cc1ccc2c(ccc3c[n+]4ccccc4c(C)c32)c1,10.9,,89.9,6.64,> 100,> 100,34.7,65.5,67.2,2.98,,,,,,,,
O=C(Nc1ccccc1)N1CCNC1=S,> 100,> 100,,> 100,> 100,> 100,> 100,> 100,> 100,> 100,,,,,,,,
CCOC(=O)[C@H]1C[C@@H](C(=O)c2ccccc2)N2N=C(c3ccc(Br)cc3)C=C[C@H]12,> 100,> 100,> 100,> 100,> 100,> 100,,> 100,> 100,,,,,,,,,
CCCCCCCCCC(=O)OCC1(CO)C/C(=C/CC(C(C)C)C(C)C)C(=O)O1 (configuration not stated),> 100,> 100,> 100,> 100,> 100,95.8,> 100,56.6,,82.3,,,,,,,,
